Test results taken from paper PMC12746157, “Light-Regulated Agonists Spatiotemporally Activating the Vitamin D Receptor Mitigate Psoriasis-like Inflammation in Mice without Inducing Hypercalcemia” (ACS Central Science, 2025).
Values belong to the compound of their own block, whether it stands above or below them.

Key:
VDR [1] = biological target: T1, VDR (Homo sapiens, UniProt P11473); assay: Luminescent proximity homogeneous assay (AlphaScreen): interaction of purified VDR, RxR and TRAP220 coactivator fragment; assay type: biochemical
T1 sequence (P11473 whole entry, the tested form may be a part): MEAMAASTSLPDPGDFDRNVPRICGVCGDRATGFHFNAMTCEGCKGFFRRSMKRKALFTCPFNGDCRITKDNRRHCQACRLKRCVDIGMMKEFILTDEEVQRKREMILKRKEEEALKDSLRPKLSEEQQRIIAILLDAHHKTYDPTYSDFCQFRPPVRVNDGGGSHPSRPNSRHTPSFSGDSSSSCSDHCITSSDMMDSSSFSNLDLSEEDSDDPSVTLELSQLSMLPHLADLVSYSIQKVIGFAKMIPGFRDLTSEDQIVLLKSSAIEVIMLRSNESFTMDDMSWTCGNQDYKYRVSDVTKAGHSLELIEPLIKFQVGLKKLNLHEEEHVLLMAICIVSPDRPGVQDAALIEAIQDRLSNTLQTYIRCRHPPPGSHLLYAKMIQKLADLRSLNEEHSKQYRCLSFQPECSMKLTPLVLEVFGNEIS
T1 sequence (P19793 whole entry partner, the tested form may be a part): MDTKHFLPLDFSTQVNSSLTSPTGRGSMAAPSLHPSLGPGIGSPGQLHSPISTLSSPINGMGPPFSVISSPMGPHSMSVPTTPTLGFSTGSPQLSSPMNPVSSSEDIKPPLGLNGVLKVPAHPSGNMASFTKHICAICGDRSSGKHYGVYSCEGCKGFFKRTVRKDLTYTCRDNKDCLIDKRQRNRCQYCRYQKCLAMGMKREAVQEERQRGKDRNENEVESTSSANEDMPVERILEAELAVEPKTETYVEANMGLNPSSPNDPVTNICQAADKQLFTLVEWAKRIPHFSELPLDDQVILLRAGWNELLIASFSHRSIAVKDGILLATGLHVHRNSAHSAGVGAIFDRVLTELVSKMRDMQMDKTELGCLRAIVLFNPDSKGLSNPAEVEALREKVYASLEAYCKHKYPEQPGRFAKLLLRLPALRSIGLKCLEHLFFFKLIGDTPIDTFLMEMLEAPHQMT
T1 sequence (Q15648 whole entry partner, the tested form may be a part): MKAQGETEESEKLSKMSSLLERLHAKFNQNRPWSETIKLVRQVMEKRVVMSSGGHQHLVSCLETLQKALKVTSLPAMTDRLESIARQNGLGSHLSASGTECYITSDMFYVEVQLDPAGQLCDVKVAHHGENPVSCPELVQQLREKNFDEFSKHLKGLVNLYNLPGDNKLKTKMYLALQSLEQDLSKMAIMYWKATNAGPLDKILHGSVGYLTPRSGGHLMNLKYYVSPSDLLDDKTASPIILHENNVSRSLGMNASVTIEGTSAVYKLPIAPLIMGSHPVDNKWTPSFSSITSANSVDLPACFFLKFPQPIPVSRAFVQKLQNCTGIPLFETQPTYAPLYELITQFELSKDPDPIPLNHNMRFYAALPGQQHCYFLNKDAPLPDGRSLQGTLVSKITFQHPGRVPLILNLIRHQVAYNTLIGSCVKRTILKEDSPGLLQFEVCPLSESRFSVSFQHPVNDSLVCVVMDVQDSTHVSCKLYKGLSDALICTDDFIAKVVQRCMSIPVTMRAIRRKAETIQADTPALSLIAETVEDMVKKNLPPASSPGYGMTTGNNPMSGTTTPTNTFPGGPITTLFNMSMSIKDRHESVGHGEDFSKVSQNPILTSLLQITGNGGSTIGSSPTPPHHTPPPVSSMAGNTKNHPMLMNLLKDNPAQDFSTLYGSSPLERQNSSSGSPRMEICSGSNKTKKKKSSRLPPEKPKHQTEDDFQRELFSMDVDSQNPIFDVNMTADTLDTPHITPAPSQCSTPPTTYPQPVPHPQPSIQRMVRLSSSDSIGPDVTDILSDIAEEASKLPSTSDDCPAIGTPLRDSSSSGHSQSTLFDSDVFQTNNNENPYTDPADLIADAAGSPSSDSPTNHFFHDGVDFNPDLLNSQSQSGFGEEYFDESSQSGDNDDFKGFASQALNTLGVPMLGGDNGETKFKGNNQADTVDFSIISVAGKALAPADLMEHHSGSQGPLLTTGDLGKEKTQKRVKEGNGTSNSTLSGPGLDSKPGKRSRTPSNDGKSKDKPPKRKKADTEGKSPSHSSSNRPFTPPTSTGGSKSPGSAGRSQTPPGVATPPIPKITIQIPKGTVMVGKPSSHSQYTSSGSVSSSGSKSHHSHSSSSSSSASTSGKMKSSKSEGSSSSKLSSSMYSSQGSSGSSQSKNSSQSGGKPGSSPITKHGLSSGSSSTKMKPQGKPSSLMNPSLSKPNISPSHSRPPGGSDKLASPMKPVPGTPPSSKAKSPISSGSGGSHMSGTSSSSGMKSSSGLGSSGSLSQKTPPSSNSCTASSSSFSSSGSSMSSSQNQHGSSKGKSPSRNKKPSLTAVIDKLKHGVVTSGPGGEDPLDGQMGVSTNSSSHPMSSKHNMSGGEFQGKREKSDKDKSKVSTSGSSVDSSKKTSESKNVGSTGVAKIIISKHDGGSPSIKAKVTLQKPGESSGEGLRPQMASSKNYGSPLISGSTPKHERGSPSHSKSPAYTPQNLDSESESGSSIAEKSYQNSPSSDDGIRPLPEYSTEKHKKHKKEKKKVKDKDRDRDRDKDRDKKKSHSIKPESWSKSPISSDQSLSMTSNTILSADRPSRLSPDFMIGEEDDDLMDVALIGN
Description: The activity of all molecules was evaluated using a luminescent proximity homogeneous assay to study interactions between purified VDR, RxR and a fragment of the transcriptional coactivator TRAP220 (Supporting Information). This method allowed us to monitor the interaction between TRAP220 and the activated VDR-RxR heterodimer, which is of mechanistic and physiological significance. Both the activation of VDR and the VDR-RxR heterodimer formation are necessary to promote the whole complex association. This system efficiently includes conformational events of the receptor upon activation that go beyond a simple binding measurement. […]
The activity of all molecules was evaluated using an in-vitro luminescent proximity homogeneous assay by using the Alphascreen technology (Cat No. 6760619R, Perkin Elmer, now Revvity). In a transparent 96-well preplate, 10X concentrations of the compounds were prepared in assay buffer (0.1% bovine serum albumin, 2 mM 1,4-dithiothreitol, 25 mM HEPES and 100 mM NaCl; pH 7.3). LSN2148936 was used as positive control. Purified histidine-tagged VDR (44 µM), flag-RxRa (5.7 µM), biotin tagged TRAP220 transcriptional coactivator (500 µM), and the donor and acceptor beads from the AlphaScreen kit (2 µL/mL each), were diluted in assay buffer. In the dark, 6 µL/well of each test compound were pipetted on a white, shallow 96-well ProxiPlateTM […]
(§1) (Perkin Elmer, now Revvity, Cat.No. 6006290) in duplicate. Immediately, 54 µL of the protein solution were added and the plate was covered and incubated for 30 min at room temperature in the dark. Meanwhile, the plate with the 10X dilutions was illuminated at 365 nm for 3 min in a 96-well DED array plate (LEDA Teleopto), to allow the photoconversion of the molecules to their cis configuration. The illuminated compounds were mixed with the protein solution and incubated as described above for the plate in the dark. After the incubation time, the counts of both, the dark and illuminated plates, were measured in a Tecan Spark 20M Multimode plate reader with defined settings (excitation: 680 nm, emission: 520-620 nm, excitation time: 100ms, integration time: 300 ms). Biotinylated-His6 peptide (PerkinElmer) was used as a quality control reagent for AlphaScreen® assays and to evaluate compound interaction with the method. The raw data were normalized to the effect of the buffer (0%) and the maximum response obtained with LSN2148936 (100%). Dose-response curves and EC50 values were calculated with Graphpad software. Each experiment was performed in triplicate, with 2 replicates per plate.
4. Hydrogen/deuterium exchange coupled to mass spectrometry (HDX-MS)
The HDX-MS experiments were performed with an in-house automated modular system interfaced with an Orbitrap Exploris 480 mass spectrometer.1 Two inter-day experiments were conducted: one in the dark (first day) and one illuminated with 365 nm light (second day). Sample preparation and on-exchange reactions were performed on opaque plates (VWR® Real-Time […]
mm, Part Nº BC5226) light source was positioned above the Tecan system used for sample preparation. The distance between the UV light and the opaque plates was 80 cm. The 365 nm light illuminated the sample preparation process and the on-exchange reaction on the second day.
A 10 µM VDR-LBD protein stock solution was prepared in 20 mM HEPES buffer (with 150 mM NaCl, 10 mM D-L Methionine and 5 mM DTT) at pH 7.5. The compound 11b was prepared at 10 mM in DMSO. The protein: compound-complex (1:10 molar ratio) was pre-incubated for 1h before the first on-exchange reaction. The HDX reaction was initiated by a 5-fold dilution of the protein stock solution, in the presence and absence of compound 11b, in the corresponding Deuterated buffer at room temperature. Samples were prepared in parallel with three replicates of […]
time point, HDX reactions were quenched with a solution of 3 M Urea and 1% TFA (pH 2.5) followed by online proteolysis with an in-house Pepsin immobilized column and desalting […]

VDR-LBD = biological target: T2, VDR-LBD (Homo sapiens, UniProt P11473); assay: HDX-MS of VDR-LBD with ligand in the dark and under 365 nm light; assay type: binding; conditions: dark vs 365 nm illumination
T2 construct: VDR-LBD protein stock solution was prepared in 20 mM HEPES buffer
T2 sequence (P11473 127-423 limits assumed): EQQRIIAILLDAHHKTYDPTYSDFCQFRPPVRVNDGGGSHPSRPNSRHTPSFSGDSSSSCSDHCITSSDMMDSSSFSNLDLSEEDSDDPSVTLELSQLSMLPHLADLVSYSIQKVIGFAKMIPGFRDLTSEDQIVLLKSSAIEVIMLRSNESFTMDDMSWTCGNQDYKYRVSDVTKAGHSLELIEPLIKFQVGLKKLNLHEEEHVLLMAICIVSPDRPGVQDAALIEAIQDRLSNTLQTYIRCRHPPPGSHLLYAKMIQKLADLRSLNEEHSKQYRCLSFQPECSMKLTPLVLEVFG
Description: Although previously used to study the effect of a cyclic azopeptide in its activated cis state, here we studied the target dynamics upon direct application of the light to the sample. To this aim, HDX-MS was applied for the characterization of the binding mode and modulation of receptor dynamics of the racemic compound PhotoVDRM. VDR-LBD was incubated alone (to provide an apo control for each experiment) or with an excess of compound PhotoVDRM and exposed to deuterium labeling for various periods of time, from 10 s to 2 h, in the dark and illuminated with light at 365 nm. […] As an additional control experiment, we also evaluated the HDX-MS of VDR-LBD in the presence and absence of a standard agonist, compound LSN2148936, in the dark and under illumination conditions. […] In order to permit direct comparison, including mathematical manipulation of the data in all these experiments, the observed deuterium incorporation percentages were converted to rate constants (expressed as −log10(k)) using our previously published Bayesian approach.
as §1, with “The raw data were normalized to the effect of the buffer (0%) and the maximum response obtained with LSN2148936 (100%).” left out, “Each experiment was performed in triplicate, with 2 replicates per plate.” left out

[2] = system: IL-23-induced psoriatic-like inflammation; assay: IL-23-induced mouse model of psoriasis (ear thickness); assay type: in vivo, C57BL/6N mice; conditions: 420 or 520 nm light regime; i.p. LSN2148936 0.005 mg/kg
Description: Each mice was administered interlueukin 23 (IL-23) once a day for a total of 3 days by intradermal injection (i.d.) into one of the mouse ears. Contralateral ear i.d. injected with PBS was used as control. Subsequently, ear thickness was measured daily, by using a digital caliper, as indicative of psoriasis-course progression (Figure A).
(A) Temporal scheme for IL-23-induced mouse model of psoriasis. Animals were treated with IL-23 (i.d.) in the left ear during three consecutive days (days 1, 2 and 3). In addition, a contralateral control was performed consisting of PBS administration in the right ear. At day 2, 3, and 4 animals were previously intraperitoneally (i.p.) administered with vehicle (saline) and drugs (i.e., LSN2148936; 0.005 mg/kg and PhotoVDRM; 0.5 mg/kg). Both ears were irradiated with 420 or 520 nm light at day 2, 3, and 4 during 8 min. […] (C) Inflammatory ear response measurements. Mice ear thickness determination in animals administrated (ip) on days 2, 3, and 4 with vehicle, LSN2148936 or PhotoVDRM treated with 420 or 520 nm light. Each day, ear thickness was measured in millimeters and represented as percentage of ear thickness increase using the first measurement of PBS-administrated ear as control. Data is shown as mean ± SD, n = 5 mice per group. Statistical analysis between PhotoVDRM and vehicle. *P < 0.05 and **P < 0.01 Student’s t test.

[3] = Serum total calcium measurement in mice (Arsenazo III); assay type: in vivo; conditions: after treatment i.p. days 2-4 (LSN2148936 0.005 mg/kg, PhotoVDRM 0.5 mg/kg), 420 or 520 nm
VDR [4] = biological target: T1, VDR; assay: Luminescent proximity homogeneous assay (AlphaScreen): interaction of purified VDR, RxR and TRAP220 coactivator fragment; assay type: biochemical; conditions: UVB narrowband light (315 nm) and visible illumination at 420 nm
VDR [5] = biological target: T1, VDR; conditions: vs other steroid receptors such as the glucocorticoid; no reference given; cited from earlier work
[6] = UV-Vis absorption spectra and thermal relaxation of the cis isomers in DMSO; assay type: physicochemical; conditions: 60 μM in 100% DMSO, 37 °C
Description: (§2) The UV–vis absorbance spectra of all molecules were measured in the dark and after the application of light of different wavelengths ranging from 365 to 770 nm (Figure A and Figures S1–S3). […] Consequently, violet/UV light below 405 nm efficiently promoted photoisomerization, which produced a dramatic decrease in the π-π* band and a significant increase in the n-π* band at around 445 nm (Table ). […] The proportion of molecules at the PSS in trans isomer upon constant illumination with light at 525 nm and cis at 365 nm was in general above 50%, reaching a remarkable >99% for compound 11d (Table and Figures S4 and S5). […] The greater stability of the trans isomer was consistent with previous quantum mechanical and molecular mechanics predictions. Measuring the photoisomerization properties of compound PhotoVDRM allowed us to determine the photoisomerization quantum yields of the compound by solving a differential equation for photoisomerization. We used MATLAB to perform regression and arrive at the following photoisomerization quantum yields: ϕ365 nm (trans) = 0.0427, ϕ365 nm (cis) = 0.0501, ϕ470 nm (trans) = 0.1857, and ϕ470 nm (cis) = 0.2281 (Figure S9). Compound PhotoVDRM was also evaluated in aqueous buffer used for pharmacological experiments (0.5% DMSO) showing a thermal relaxation of 3 h, almost 7 times faster than in pure DMSO (Figure B). […] A deeper photocharacterization of PhotoVDRM allowed us to measure the kinetics of photoconversion upon constant illumination with two wavelengths and three light intensities (Figure D and Figure S10). […] Indeed, with LED devices producing light at intensities as low as 0.05 mW/mm^2 we were able to transform trans to cis in around 15.5 s. This time was reduced to 6 and 2 s when the light intensity was increased to 0.15 and 0.75 mW/mm^2. […] Therefore, we proceeded to test the ability of the chemical library to activate the VDR under different light conditions.
2. Photochemical characterization. […]
(§3) (200 µL per well). The absorption spectra were recorded from 300 to 600 nm with 2 nm fixed intervals using a Tecan Spark 20M Multimode microplate reader. Initial measurements were performed in the dark, followed by spectra acquired immediately after each 3 min period of light irradiation at different wavelengths using 96-well LED array plates (LEDA Teleopto). Theoretical absorbance spectra corresponding to the pure cis isomer (100%) of each compound were calculated in order to obtain the theoretical percentage of cis isomer at each wavelength, according to the method described by Ernst Fischer (1967). Thermal relaxation kinetics of the experimental cis isomers were assessed in quartz cuvettes (10 mm optical path) containing freshly prepared 50 […]
Dark state absorbance at 365 nm was recorded at 37
ºC using a ThermoFisher Evolution 350 UV-Vis spectrophotometer. Samples were then irradiated for 3 minutes at 365 nm with a CoolLED pE-4000 light sourceto induce trans → cis photoisomerization.. Absorbance at 365 nm was subsequently monitored over 48 h: every 15 min during the first 24 h, and every 60 min during the following 24 h. Relaxation half-lives were determined by fitting the absorbance-time data to a […] exponential model using GraphPad Prism v10.4.1. […]

[7] = Photostationary state (PSS) determination by HPLC-MS in aqueous assay buffer; assay type: physicochemical; conditions: 21 °C, HPLC-MS, 60 μM, aqueous buffer 0.6% DMSO
Description: as §2
Photostationary state (PSS) determination. In a transparent vial, solutions of the compounds were prepared at a concentration of 60 µM from a 10 mM stock in DMSO, using the assay buffer of pharmacological experiments for dilution. Prior to illumination, a volume of 500 µL was transferred to an amber vial for the "dark" sample. The same procedure was repeated after exposing the transparent vial containing the 60 µM solutions to the following light conditions:
365nm for 3 minutes and 525nm for 3 minutes. […]
difference on isomeric proportions. For each sample, 20 µL was analyzed by HPLC-MS, and the isomer ratios were determined at the isosbestic point.
Isosbestic point determination. The solvent percentage for the elution of each isomer were calculated based on their retention times from HPLC analysis. Subsequently, 50 µM solutions were prepared from the 10 mM DMSO stock solution of each compound using the previously determined HPLC solvent mixture. The UV spectrum for each solution was recorded after illumination at 365 nm (30 seconds), at 400 nm (30 seconds), and at 525 nm (30 seconds). The spectra were overlaid to identify the isosbestic point of maximum intensity.
HPLC conditions. Analytical HPLC was performed on a Thermo Ultimate 3000SD (Thermo Scientific Dionex) coupled to a PDA detector and Mass Spectrometer LTQ XL ESI-ion trap (Thermo Scientific). Cromatographic separations were performed using a ZORBAX Eclipse Plus C18 (4.6 x 150mm; 3.5µm) column. The mobile phase consisted of an isocratic mixture of solvent A (water with 0.05% of formic acid) and solvent B (acetonitrile with 0.05% formic acid) at a 3:7 ratio for compounds 10a-d and a 2:3 ratio for compounds 11a-d and 12a-d. […]

[8] = Proportions of cis and trans at the photostationary state in DMSO from absorbance spectra (Ernst Fischer method); assay type: physicochemical
Description: 2. Photochemical characterization.
as §3, with “A 50 µM solution of each compound in DMSO was dispensed into a transparent 96-well plate (200” for “(200”, “(1967).” for “(1967). Thermal relaxation kinetics of the experimental cis isomers were assessed in quartz cuvettes (10 mm optical path) containing freshly prepared 50”
Table S6. Proportions of cis and trans at the photostationary state in DMSO. […]

Compound: CCC(CC)(c1ccc(CCC(O)C(C)(C)C)c(C)c1)c1ccc(C(=O)N(C)CC(=O)O)c(C)c1 (centres unmarked) [LSN2148936, reference compound]
Emax (VDR [1]; after illumination (365 nm) for 3 min, normalized to maximum response of LSN2148936 (100%), mean ± SEM): 107 ± 0.08%
effect of application of light on activity (control) (VDR [1]; dark vs 365 nm): not affected
light-dependent changes of HDX behavior (VDR-LBD): no significant light-dependent changes
IL-23-induced ear inflammation (ear thickness) [2]: prevented IL-23-associated inflammatory response
effect on calcium homeostasis (serum total calcium) [3]: significant effects
modulation of activity by light (VDR [4]): not
selectivity for VDR (VDR [5]): highly selective

t 1/2 (thermal relaxation of cis) [6]: 23.2 h
λn−π* (cis) ([6]; after illumination): 444 nm
λπ–π* (trans) ([6]; dark): 364 nm
PSS365 (% cis) ([7]; 3 min illumination 365 nm): 87%
PSS525 (%trans) ([7]; 3 min illumination 525 nm): 86%
%cis at the photostationary state ([8]; 365 nm): 96,95%
%trans at the photostationary state ([8]; 365 nm): 3,05%
%cis at the photostationary state ([8]; 380 nm): 95,69%
%trans at the photostationary state ([8]; 380 nm): 4,31%
%cis at the photostationary state ([8]; 405 nm): 59,74%
%trans at the photostationary state ([8]; 405 nm): 40,26%
%cis at the photostationary state ([8]; 420 nm): 56,13%
%trans at the photostationary state ([8]; 420 nm): 43,87%
%cis at the photostationary state ([8]; 470 nm): 28,95%
%trans at the photostationary state ([8]; 470 nm): 71,05%
%cis at the photostationary state ([8]; 500 nm): 30,48%
%trans at the photostationary state ([8]; 500 nm): 69,52%
%cis at the photostationary state ([8]; 530 nm): 26,87%
%trans at the photostationary state ([8]; 530 nm): 73,13%
Compound: Cc1cc(/N=N/c2cccc(-c3ccc(CO)cc3C)c2)ccc1OCC(O)C(C)(C)C (centres unmarked) [Compound 12c]
